Data reported in ChEMBL document CHEMBL3046429, “Synthesis, molecular modeling study, preliminary antibacterial, and antitumor evaluation of N-substituted naphthalimides and their structural analogues” (2013).
≈ marks a conversion by molar mass, not a printed value.

What was measured:
Format in all cases: functional
[1] = test system: UACC-62; assay: Growth inhibition of Homo sapiens (human) UACC62 cells at 10 uM after 48 hr by coulter counter analysis; conditions: UACC-62, 48 h, read-out: GI
[2] = test system: SK-MEL-28; assay: Growth inhibition of Homo sapiens (human) SK-MEL-28 cells at 10 uM after 48 hr by coulter counter analysis; conditions: SK-MEL-28, 48 h, read-out: GI
[3] = test system: SK-MEL-5; assay: Growth inhibition of Homo sapiens (human) SK-MEL-5 cells at 10 uM after 48 hr by coulter counter analysis; conditions: SK-MEL-5, 48 h, read-out: GI
[4] = test system: M14; assay: Growth inhibition of Homo sapiens (human) M14 cells at 10 uM after 48 hr by coulter counter analysis; conditions: M14, 48 h, read-out: GI
[5] = test system: TK-10; assay: Growth inhibition of Homo sapiens (human) TK10 cells at 10 uM after 48 hr by coulter counter analysis; conditions: TK-10, 48 h, read-out: GI
[6] = test system: CAKI-1; assay: Growth inhibition of Homo sapiens (human) CAKI-1 cells at 10 uM after 48 hr by coulter counter analysis; conditions: CAKI-1, 48 h, read-out: GI
[7] = test system: ACHN; assay: Growth inhibition of Homo sapiens (human) ACHN cells at 10 uM after 48 hr by coulter counter analysis; conditions: read-out: GI
[8] = test system: K562; assay: Growth inhibition of Homo sapiens (human) K562 cells at 10 uM after 48 hr by coulter counter analysis; conditions: K562, 48 h, read-out: GI
[9] = test system: U-251; assay: Growth inhibition of Homo sapiens (human) U251 cells at 10 uM after 48 hr by coulter counter analysis; conditions: U-251, 48 h, read-out: GI
[10] = test system: HCC 2998; assay: Growth inhibition of Homo sapiens (human) HCC2998 cells at 10 uM after 48 hr by coulter counter analysis; conditions: HCC 2998, 48 h, read-out: GI
[11] = test system: EKVX; assay: Growth inhibition of Homo sapiens (human) EKVX cells at 10 uM after 48 hr by coulter counter analysis; conditions: read-out: GI
[12] = test system: HL-60(TB); assay: Growth inhibition of Homo sapiens (human) HL-60(TB) cells at 10 uM after 48 hr by coulter counter analysis; conditions: HL-60, 48 h, read-out: GI
[13] = test system: DU-145; assay: Growth inhibition of Homo sapiens (human) DU145 cells at 10 uM after 48 hr by coulter counter analysis; conditions: DU-145, 48 h, read-out: GI
[14] = test system: OVCAR-4; assay: Growth inhibition of Homo sapiens (human) OVCAR4 cells at 10 uM after 48 hr by coulter counter analysis; conditions: OVCAR-4, 48 h, read-out: GI
[15] = test system: OVCAR-3; assay: Growth inhibition of Homo sapiens (human) OVCAR3 cells at 10 uM after 48 hr by coulter counter analysis; conditions: OVCAR-3, 48 h, read-out: GI
[16] = test system: IGROV-1; assay: Growth inhibition of Homo sapiens (human) IGROV1 cells at 10 uM after 48 hr by coulter counter analysis; conditions: IGROV-1, 48 h, read-out: GI
[17] = test system: T47D; assay: Growth inhibition of Homo sapiens (human) T47D cells at 10 uM after 48 hr by coulter counter analysis; conditions: read-out: GI
[18] = test system: Hs-578T; assay: Growth inhibition of Homo sapiens (human) Hs 578T cells at 10 uM after 48 hr by coulter counter analysis; conditions: read-out: GI
[19] = test system: KM12; assay: Growth inhibition of Homo sapiens (human) KM12 cells at 10 uM after 48 hr by coulter counter analysis; conditions: KM12, 48 h, read-out: GI
[20] = test system: MCF7; assay: Growth inhibition of Homo sapiens (human) MCF7 cells at 10 uM after 48 hr by coulter counter analysis; conditions: MCF7, 48 h, read-out: GI
[21] = test system: Escherichia coli; assay: Antibacterial activity against Escherichia coli assessed as growth inhibition after 24 hr by two-fold serial dilution method

## O=C1c2nccnc2C(=O)N1c1c(Cl)cc(Cl)cc1Cl
[1]
  inhibition of growth at 10 µM: 1.42%
[2]
  inhibition of growth at 10 µM: -3.36%
[3]
  inhibition of growth at 10 µM: -6.79%
[4]
  inhibition of growth at 10 µM: 3.32%
[5]
  inhibition of growth at 10 µM: -4.45%
[6]
  inhibition of growth at 10 µM: 18%
[7]
  inhibition of growth at 10 µM: -0.27%
[8]
  inhibition of growth at 10 µM: 10.1%
[9]
  inhibition of growth at 10 µM: -7.03%
[10]
  inhibition of growth at 10 µM: -4.24%
[11]
  inhibition of growth at 10 µM: 8.2%
[12]
  inhibition of growth at 10 µM: 1.42%
[13]
  inhibition of growth at 10 µM: 18.6%
[14]
  inhibition of growth at 10 µM: -0.64%
[15]
  inhibition of growth at 10 µM: -15.4%
[16]
  inhibition of growth at 10 µM: 7.24%
[17]
  inhibition of growth at 10 µM: 5.37%
[18]
  inhibition of growth at 10 µM: 15.3%
[19]
  inhibition of growth at 10 µM: 10.3%
[20]
  inhibition of growth at 10 µM: 3.64%
[21]
  -logMIC: 4.68
[21]; Escherichia coli, 24 h
  MIC: 6.9 µg/mL (≈ 21 µM)
